Assay results reported in patent US9352013B2, “Uses of bremelanotide in therapy for female sexual dysfunction” (Palatin Technologies, Inc., priority 2012, dated 2016).
Marks after values point to notes of the source that are not given here.

Experiment: Example 1: ambulatory blood pressure monitoring
Format: in vivo, human
Conditions: for Pulse: treatment group difference (from placebo) in mean change from single-blind placebo: in bpm (unit assumed); for DBP: treatment group difference (from placebo) in mean change from single-blind placebo / SBP: treatment group difference (from placebo) in mean change from single-blind placebo: in mmHg (unit assumed); for HR-BP Product: treatment group difference (from placebo) in mean change from single-blind placebo: in mmHg·bpm (unit assumed)
Method: Ambulatory blood pressure monitoring was conducted following both placebo and randomized treatment group in-clinic administrations. Three periods of ambulatory blood pressure monitoring were included, the first period was from before to 24 hours after a single, in-clinic dose of placebo (to establish a baseline); the second and third periods occurred from before to 24 hours after each of 2 single, in-clinic doses of double-blind treatment, administered within 14 days of each other. Blood samples for pharmacokinetic analysis were collected before and at 0.5, 1.0, and 2.0 hours after each in-clinic bremelanotide single-dose treatment (double-blind only), to permit analysis of concentration-response relationships.
Mean changes in blood pressure were characterized in all subjects based on sequential supervised dosing of single-blind subcutaneous placebo and two doses of randomized study drug. The primary analysis for mean changes was the difference between treatment groups in the change from single-blind placebo to randomized drug (Visit 2 vs. Visits 5/7). There were between 86 to 100 subjects in each dose group.
Although there were an increased number of outliers for maximal changes from baseline in systolic blood pressure in drug-treated patients, the duration of these events was quite limited. The interrogation interval during ambulatory blood pressure monitoring assessments of 15 minutes allowed definition of the maximal duration of such excursions. […] The clinical significance of such changes, if any, is small.

[1] = 0.75 mg SC, interval 0-24 h, V5
[2] = 0.75 mg SC, interval 0-24 h, V7
[3] = 0.75 mg SC, interval 8-24 h, V5
[4] = 0.75 mg SC, interval 8-24 h, V7
[5] = 1.25 mg SC, interval 0-24 h, V5
[6] = 1.25 mg SC, interval 0-24 h, V7
[7] = 1.25 mg SC, interval 8-24 h, V5
[8] = 1.25 mg SC, interval 8-24 h, V7
[9] = 1.75 mg SC, interval 0-24 h, V5
[10] = 1.75 mg SC, interval 0-24 h, V7
[11] = 1.75 mg SC, interval 8-24 h, V5
[12] = 1.75 mg SC, interval 8-24 h, V7

SMILES: CCCC[C@H](NC(C)=O)C(=O)N[C@H]1CC(=O)NCCCC[C@@H](C(=O)O)NC(=O)[C@H](Cc2c[nH]c3ccccc23)NC(=O)[C@H](CCCNC(=N)N)NC(=O)[C@@H](Cc2ccccc2)NC(=O)[C@H](Cc2c[nH]cn2)NC1=O [bremelanotide, Ac-Nle-cyclo(-Asp-His-D-Phe-Arg-Trp-Lys)-OH]
- Systolic blood pressure shifts: ΔSBP >10 mmHg, Duration >30 minutes (0.75 mg SC): 1
- Systolic blood pressure shifts: ΔSBP >15 mmHg, Duration >30 minutes (0.75 mg SC): 0
- Pulse: treatment group difference (from placebo) in mean change from single-blind placebo (0.75 mg SC, interval 0-4 h, V5): −5.2*
- DBP: treatment group difference (from placebo) in mean change from single-blind placebo (0.75 mg SC, interval 0-4 h, V5): 1.5
- SBP: treatment group difference (from placebo) in mean change from single-blind placebo (0.75 mg SC, interval 0-4 h, V5): 1.8
- HR-BP Product: treatment group difference (from placebo) in mean change from single-blind placebo (0.75 mg SC, interval 0-4 h, V5): −492.8*
- Pulse: treatment group difference (from placebo) in mean change from single-blind placebo (0.75 mg SC, interval 0-4 h, V7): −4.8*
- DBP: treatment group difference (from placebo) in mean change from single-blind placebo (0.75 mg SC, interval 0-4 h, V7): 0.6
- SBP: treatment group difference (from placebo) in mean change from single-blind placebo (0.75 mg SC, interval 0-4 h, V7): 1.1
- HR-BP Product: treatment group difference (from placebo) in mean change from single-blind placebo (0.75 mg SC, interval 0-4 h, V7): −491.9*
- Pulse: treatment group difference (from placebo) in mean change from single-blind placebo [1]: −2.2*
- DBP: treatment group difference (from placebo) in mean change from single-blind placebo [1]: 1.1*
- SBP: treatment group difference (from placebo) in mean change from single-blind placebo [1]: 1.1
- HR-BP Product: treatment group difference (from placebo) in mean change from single-blind placebo [1]: −187.7
- Pulse: treatment group difference (from placebo) in mean change from single-blind placebo [2]: −1.6
- DBP: treatment group difference (from placebo) in mean change from single-blind placebo [2]: 1.3*
- SBP: treatment group difference (from placebo) in mean change from single-blind placebo [2]: 1.5
- HR-BP Product: treatment group difference (from placebo) in mean change from single-blind placebo [2]: −82.3
- Pulse: treatment group difference (from placebo) in mean change from single-blind placebo (0.75 mg SC, interval 4-8 h, V5): −6.2*
- DBP: treatment group difference (from placebo) in mean change from single-blind placebo (0.75 mg SC, interval 4-8 h, V5): 1.3
- SBP: treatment group difference (from placebo) in mean change from single-blind placebo (0.75 mg SC, interval 4-8 h, V5): 0.9
- HR-BP Product: treatment group difference (from placebo) in mean change from single-blind placebo (0.75 mg SC, interval 4-8 h, V5): −676.5*
- Pulse: treatment group difference (from placebo) in mean change from single-blind placebo (0.75 mg SC, interval 4-8 h, V7): −5.5*
- DBP: treatment group difference (from placebo) in mean change from single-blind placebo (0.75 mg SC, interval 4-8 h, V7): 1.7
- SBP: treatment group difference (from placebo) in mean change from single-blind placebo (0.75 mg SC, interval 4-8 h, V7): 1.6
- HR-BP Product: treatment group difference (from placebo) in mean change from single-blind placebo (0.75 mg SC, interval 4-8 h, V7): −503.3*
- Pulse: treatment group difference (from placebo) in mean change from single-blind placebo [3]: −0.4
- DBP: treatment group difference (from placebo) in mean change from single-blind placebo [3]: 1.0
- SBP: treatment group difference (from placebo) in mean change from single-blind placebo [3]: 0.9
- HR-BP Product: treatment group difference (from placebo) in mean change from single-blind placebo [3]: 5.2
- Pulse: treatment group difference (from placebo) in mean change from single-blind placebo [4]: 0.1
- DBP: treatment group difference (from placebo) in mean change from single-blind placebo [4]: 1.3*
- SBP: treatment group difference (from placebo) in mean change from single-blind placebo [4]: 1.6
- HR-BP Product: treatment group difference (from placebo) in mean change from single-blind placebo [4]: 114.9
- Systolic blood pressure shifts: ΔSBP >10 mmHg, Duration >30 minutes (1.25 mg SC): 2
- Systolic blood pressure shifts: ΔSBP >15 mmHg, Duration >30 minutes (1.25 mg SC): 0
- Pulse: treatment group difference (from placebo) in mean change from single-blind placebo (1.25 mg SC, interval 0-4 h, V5): −5.2*
- DBP: treatment group difference (from placebo) in mean change from single-blind placebo (1.25 mg SC, interval 0-4 h, V5): 3.0*
- SBP: treatment group difference (from placebo) in mean change from single-blind placebo (1.25 mg SC, interval 0-4 h, V5): 2.4*
- HR-BP Product: treatment group difference (from placebo) in mean change from single-blind placebo (1.25 mg SC, interval 0-4 h, V5): −436.4*
- Pulse: treatment group difference (from placebo) in mean change from single-blind placebo (1.25 mg SC, interval 0-4 h, V7): −6.1*
- DBP: treatment group difference (from placebo) in mean change from single-blind placebo (1.25 mg SC, interval 0-4 h, V7): 2.2*
- SBP: treatment group difference (from placebo) in mean change from single-blind placebo (1.25 mg SC, interval 0-4 h, V7): 2.1*
- HR-BP Product: treatment group difference (from placebo) in mean change from single-blind placebo (1.25 mg SC, interval 0-4 h, V7): −583.3*
- Pulse: treatment group difference (from placebo) in mean change from single-blind placebo [5]: −2.9*
- DBP: treatment group difference (from placebo) in mean change from single-blind placebo [5]: 1.9*
- SBP: treatment group difference (from placebo) in mean change from single-blind placebo [5]: 1.1
- HR-BP Product: treatment group difference (from placebo) in mean change from single-blind placebo [5]: −265.9
- Pulse: treatment group difference (from placebo) in mean change from single-blind placebo [6]: −2.6*
- DBP: treatment group difference (from placebo) in mean change from single-blind placebo [6]: 1.7*
- SBP: treatment group difference (from placebo) in mean change from single-blind placebo [6]: 1.6*
- HR-BP Product: treatment group difference (from placebo) in mean change from single-blind placebo [6]: −206.5
- Pulse: treatment group difference (from placebo) in mean change from single-blind placebo (1.25 mg SC, interval 4-8 h, V5): −6.1*
- DBP: treatment group difference (from placebo) in mean change from single-blind placebo (1.25 mg SC, interval 4-8 h, V5): 2.2*
- SBP: treatment group difference (from placebo) in mean change from single-blind placebo (1.25 mg SC, interval 4-8 h, V5): 1.4
- HR-BP Product: treatment group difference (from placebo) in mean change from single-blind placebo (1.25 mg SC, interval 4-8 h, V5): −621.0*
- Pulse: treatment group difference (from placebo) in mean change from single-blind placebo (1.25 mg SC, interval 4-8 h, V7): −6.5*
- DBP: treatment group difference (from placebo) in mean change from single-blind placebo (1.25 mg SC, interval 4-8 h, V7): 0.9
- SBP: treatment group difference (from placebo) in mean change from single-blind placebo (1.25 mg SC, interval 4-8 h, V7): 1.3*
- HR-BP Product: treatment group difference (from placebo) in mean change from single-blind placebo (1.25 mg SC, interval 4-8 h, V7): −669.7*
- Pulse: treatment group difference (from placebo) in mean change from single-blind placebo [7]: −1.5
- DBP: treatment group difference (from placebo) in mean change from single-blind placebo [7]: 1.4*
- SBP: treatment group difference (from placebo) in mean change from single-blind placebo [7]: 0.7
- HR-BP Product: treatment group difference (from placebo) in mean change from single-blind placebo [7]: −127.4
- Pulse: treatment group difference (from placebo) in mean change from single-blind placebo [8]: −0.7
- DBP: treatment group difference (from placebo) in mean change from single-blind placebo [8]: 1.7*
- SBP: treatment group difference (from placebo) in mean change from single-blind placebo [8]: 1.5*
- HR-BP Product: treatment group difference (from placebo) in mean change from single-blind placebo [8]: 4.2
- Systolic blood pressure shifts: ΔSBP >10 mmHg, Duration >30 minutes (1.75 mg SC): 0
- Systolic blood pressure shifts: ΔSBP >15 mmHg, Duration >30 minutes (1.75 mg SC): 0
- Pulse: treatment group difference (from placebo) in mean change from single-blind placebo (1.75 mg SC, interval 0-4 h, V5): −4.6*
- DBP: treatment group difference (from placebo) in mean change from single-blind placebo (1.75 mg SC, interval 0-4 h, V5): 3.2*
- SBP: treatment group difference (from placebo) in mean change from single-blind placebo (1.75 mg SC, interval 0-4 h, V5): 3.1*
- HR-BP Product: treatment group difference (from placebo) in mean change from single-blind placebo (1.75 mg SC, interval 0-4 h, V5): −305.9
- Pulse: treatment group difference (from placebo) in mean change from single-blind placebo (1.75 mg SC, interval 0-4 h, V7): −4.7*
- DBP: treatment group difference (from placebo) in mean change from single-blind placebo (1.75 mg SC, interval 0-4 h, V7): 2.6*
- SBP: treatment group difference (from placebo) in mean change from single-blind placebo (1.75 mg SC, interval 0-4 h, V7): 2.5*
- HR-BP Product: treatment group difference (from placebo) in mean change from single-blind placebo (1.75 mg SC, interval 0-4 h, V7): −375.4*
- Pulse: treatment group difference (from placebo) in mean change from single-blind placebo [9]: −2.2*
- DBP: treatment group difference (from placebo) in mean change from single-blind placebo [9]: 1.9*
- SBP: treatment group difference (from placebo) in mean change from single-blind placebo [9]: 1.6
- HR-BP Product: treatment group difference (from placebo) in mean change from single-blind placebo [9]: −139.1
- Pulse: treatment group difference (from placebo) in mean change from single-blind placebo [10]: −2.2*
- DBP: treatment group difference (from placebo) in mean change from single-blind placebo [10]: 1.8*
- SBP: treatment group difference (from placebo) in mean change from single-blind placebo [10]: 1.3
- HR-BP Product: treatment group difference (from placebo) in mean change from single-blind placebo [10]: −184.1
- Pulse: treatment group difference (from placebo) in mean change from single-blind placebo (1.75 mg SC, interval 4-8 h, V5): −6.6*
- DBP: treatment group difference (from placebo) in mean change from single-blind placebo (1.75 mg SC, interval 4-8 h, V5): 2.3*
- SBP: treatment group difference (from placebo) in mean change from single-blind placebo (1.75 mg SC, interval 4-8 h, V5): 2.1
- HR-BP Product: treatment group difference (from placebo) in mean change from single-blind placebo (1.75 mg SC, interval 4-8 h, V5): −608.1*
- Pulse: treatment group difference (from placebo) in mean change from single-blind placebo (1.75 mg SC, interval 4-8 h, V7): −6.6*
- DBP: treatment group difference (from placebo) in mean change from single-blind placebo (1.75 mg SC, interval 4-8 h, V7): 2.2*
- SBP: treatment group difference (from placebo) in mean change from single-blind placebo (1.75 mg SC, interval 4-8 h, V7): 2.2
- HR-BP Product: treatment group difference (from placebo) in mean change from single-blind placebo (1.75 mg SC, interval 4-8 h, V7): −624.5*
- Pulse: treatment group difference (from placebo) in mean change from single-blind placebo [11]: −0.8
- DBP: treatment group difference (from placebo) in mean change from single-blind placebo [11]: 1.4*
- SBP: treatment group difference (from placebo) in mean change from single-blind placebo [11]: 0.9
- HR-BP Product: treatment group difference (from placebo) in mean change from single-blind placebo [11]: −23.7
- Pulse: treatment group difference (from placebo) in mean change from single-blind placebo [12]: −0.5
- DBP: treatment group difference (from placebo) in mean change from single-blind placebo [12]: 1.4
- SBP: treatment group difference (from placebo) in mean change from single-blind placebo [12]: 0.6
- HR-BP Product: treatment group difference (from placebo) in mean change from single-blind placebo [12]: −31.3
